Reference: patent US9101600B2, “Compounds as RORγt modulators and uses thereof” (New York University, priority 2010, dated 2015)

Target: RORγ/γt (Mus musculus, UniProt P51450, T352K)
Assay: RORγ/γt-luc reporter S2 cell assay / HTS (firefly luciferase)
Details: for Curve Class: RORγ/γt HTS concentration response curve class; for 80% Inhib. @: RORγ/γt reporter, S2 cells, concentration for 80% inhibition
Excerpt: The Drosophila S2 cell line was originally purchased from Invitrogen and was maintained in Schneider's medium supplemented with 10% heat-inactivated bovine fetal calf serum and antibiotics (Invitrogen). Gal4 DNA binding domain (G4 DBD) corresponding to amino acids 1 through 147 of Gal4 protein was PCR amplified to make a fusion construct with mouse RORγt (amino acids 79 to the carboxyl terminal end) lacking its DNA binding domain. The resulting chimeric gene was subcloned into the copper inducible pMT/V5-His A vector (available from Invitrogen). In a similar manner, Gal4 fusion constructs were prepared with mouse RORα (amino acids 142 to end) or Drosophila DHR3 (amino acids 120 to end).
In order to generate stable cell lines, cells were co-transfected with pMT-G4 DBD-RORγt, pMT-G4 DBD-RORα, pMT-G4 DBD-DHR3, or pMT-G4DBDVP16 and pHygro plasmids (Invitrogen) and screened for resistant colonies in the presence of hygromycin (0.3 mg/mL). More than 150 independent RORγ stable clones with luciferase reporters (pMt-RORγ_luc) were tested for their suitability for the high-throughput screening (HTS) based on the following criteria: high signal-to background ratio in 384- and 1,536-well plates, their high induction rate upon the addition of copper, and RORγ/γt specificity probed by the dsRORγ- or RORγ/γt antagonist-mediated suppression. Positive clones were further transfected with pUAST-firefly luciferase, polIII-Renilla luciferase, and pCoPuro (Iwaki, Figuera et al. 2003) (“Rapid selection of Drosophila S2 cells with the puromycin resistance gene.” Biotechniques 35(3): 482-4, 486.) and selected with puromycin (2.5 ug/ml). […] Using similar methods, stable clones with genomic integration of the luciferase reporters and other reporters were generated such as pMT-RORα_luc, pMT-DHR3_luc, or pMT-VP16_luc.
600 G4 DBD-RORγ/γt-luc reporter (#25) or G4 DBD-VP16-luc reporter cells were distributed into each well of 1,536-well white bottom plates in 4 μl S2 cell culture volume containing hygromicin (300 μg/ml) and puromycin (2 μg/ml). Small compounds in seven different concentrations range from 46 μM to 1.7 nM were pin-transferred (23 nl) by a robot (Inglese et al., 2006, Proc. Natl. Acad. Sci. 103:11473-8). […] After 20-hour incubation at ambient temperature, 1.5 μl firefly luciferase detection mix was added and the luciferase activities were measured in 10 min. ViewLux luminometers were used for measuring luciferase signal.
Since their cognate DNA binding sites were not well characterized, the DNA binding domains (DBD) of RORγ/γt, RORα(mouse homolog for PORγ), and DHR3 (Drosophila orthologue for ROR family proteins) were replaced with the heterologous yeast GAL4 DBD. The transcriptionally active domain of general transcriptional activator VP16 was also fused with GAL4 DBD.

RORγ/γt, sequence (P51450 with tags, fused parts or gaps T352K): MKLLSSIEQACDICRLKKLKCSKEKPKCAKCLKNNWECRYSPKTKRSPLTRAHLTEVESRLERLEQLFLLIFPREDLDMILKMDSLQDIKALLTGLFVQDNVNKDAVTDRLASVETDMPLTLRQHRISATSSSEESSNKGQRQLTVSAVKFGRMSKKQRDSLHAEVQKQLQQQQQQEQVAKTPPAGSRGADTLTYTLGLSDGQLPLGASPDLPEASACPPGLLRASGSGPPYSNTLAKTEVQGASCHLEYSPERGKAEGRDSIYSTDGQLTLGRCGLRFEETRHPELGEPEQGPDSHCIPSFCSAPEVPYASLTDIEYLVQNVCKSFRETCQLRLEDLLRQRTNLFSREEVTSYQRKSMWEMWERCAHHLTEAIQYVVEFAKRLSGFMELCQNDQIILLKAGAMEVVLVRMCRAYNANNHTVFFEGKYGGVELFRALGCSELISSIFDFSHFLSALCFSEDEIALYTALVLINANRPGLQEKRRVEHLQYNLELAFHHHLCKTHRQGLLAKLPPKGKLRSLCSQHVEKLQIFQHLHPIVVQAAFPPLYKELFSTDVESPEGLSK

Structure (SMILES)	AC50 [µM]	Curve Class	IC50 [µM]	80% Inhib. @ [µM]
CCOC(=O)[C@@H]1[C@H]2COc3ccc(Br)cc3[C@@H]2N2C(=O)N(c3ccc(C(F)(F)F)cc3)C(=O)[C@]12C [MLS001066035-01]	3.98	4		
CCOC(=O)[C@@H]1[C@H]2COc3ccccc3[C@@H]2N2C(=O)N(c3ccc(OC)cc3)C(=O)[C@@]12C [MLS001066514-01]	14.1	4		
CCOC(=O)[C@@H]1[C@H]2COc3ccccc3[C@@H]2N2C(=O)N(c3cccc(Cl)c3)C(=O)[C@]12C [MLS001066286-01]		4		
CCOC(=O)[C@@H]1[C@H]2COc3cc(OC)ccc3[C@@H]2N2C(=O)N(c3ccc(F)cc3)C(=O)[C@]12C [MLS001066228-01]	0.141	4		
CCOC(=O)[C@@H]1[C@H]2COc3cc(OC)ccc3[C@@H]2N2C(=O)N(c3cccc(C)c3)C(=O)[C@@]12C [MLS001066270-01]	12.6	−3		
CCOC(=O)[C@@H]1[C@H]2COc3cc(OC)ccc3[C@@H]2N2C(=O)N(c3ccc(Br)cc3)C(=O)[C@@]12C [MLS001066318-01]	7.94	−2.1		
CCOC(=O)[C@@H]1[C@H]2COc3cc(OC)ccc3[C@@H]2N2C(=O)N(c3ccc(C(F)(F)F)cc3)C(=O)[C@@]12C [MLS001066319-01]	15.8	−3		
C=C1NN=C(c2cc(-c3cccc(OCC)c3)nc3ccccc23)N1CC [MLS000324596-02]			2.11	3.293
CCOC(=O)[C@@H]1[C@H]2COc3ccc(Br)cc3[C@H]2N2C(=O)N(c3cccc(Cl)c3)C(=O)[C@]12C [MLS001066096-01]	8.91	−2.2		
CCOC(=O)[C@@H]1[C@H]2COc3ccccc3[C@@H]2N2C(=O)N(c3cccc(C)c3)C(=O)[C@]12C [MLS001066305-01]	0.891	4		
CCOC(=O)[C@@H]1[C@H]2COc3ccc(Br)cc3[C@@H]2N2C(=O)N(c3ccc(OC)cc3)C(=O)[C@]12C [MLS001066294-01]	0.112	4		
CCOC(=O)[C@H]1[C@H]2COc3cc(OC)ccc3[C@@H]2N2C(=O)N(c3cccc(Cl)c3)C(=O)[C@@]12C [MLS001066321-01]	6.31	4		
CCOC(=O)[C@@H]1[C@H]2COc3ccccc3[C@H]2N2C(=O)N(c3ccc(Cl)cc3)C(=O)[C@@]12C [MLS001066454-01]	11.2	4		
CCOC(=O)[C@@H]1[C@H]2COc3ccc(Br)cc3[C@@H]2N2C(=O)N(c3ccc(C(F)(F)F)cc3)C(=O)[C@@]12C [MLS001066025-01]		4		
CCOC(=O)[C@@H]1[C@H]2COc3cc(OC)ccc3[C@H]2N2C(=O)N(c3ccc(C)cc3)C(=O)[C@@]12C [MLS001066297-01]	0.891	4		
CCOC(=O)[C@@H]1[C@H]2COc3ccc(Br)cc3[C@H]2N2C(=O)N(c3ccc(F)cc3)C(=O)[C@]12C [MLS001066253-01]		4		
CCOC(=O)[C@@H]1[C@H]2COc3ccccc3[C@@H]2N2C(=O)N(c3ccc(Cl)cc3)C(=O)[C@@]12C [MLS001066523-01]	15.8	−3		
COc1ccccc1CNC(=O)[C@@H](NC(=O)C1CCN(C(=O)[C@@H]2CCCN2C(=O)OC(C)(C)C)CC1)C(C)C [MLS001157801-02]			14.7	45.85
CCOC(=O)[C@@H]1[C@H]2COc3ccc(Br)cc3[C@H]2N2C(=O)N(c3ccc(Br)cc3)C(=O)[C@]12C [MLS001066254-01]	1.12	4		
CCOC(=O)[C@@H]1[C@H]2COc3ccccc3[C@@H]2N2C(=O)N(c3ccc(F)cc3)C(=O)[C@@]12C [MLS001066483-01]	12.6	−2.2		
CCOC(=O)[C@@H]1[C@H]2COc3ccccc3[C@@H]2N2C(=O)N(c3ccc(Cl)cc3)C(=O)[C@]12C [MLS001066434-01]	3.16	4		
CCOC(=O)[C@@H]1[C@H]2COc3ccccc3[C@@H]2N2C(=O)N(c3cccc(Cl)c3)C(=O)[C@@]12C [MLS001066276-01]	17.8	−3		
CCOC(=O)[C@@H]1[C@H]2COc3cc(OC)ccc3[C@@H]2N2C(=O)N(c3ccc(OC)cc3)C(=O)[C@]12C [MLS001066279-01]		4		
CCOC(=O)[C@@H]1[C@H]2COc3cc(OC)ccc3[C@H]2N2C(=O)N(c3ccc(F)cc3)C(=O)[C@@]12C [MLS001066248-01]		4		

Structure (SMILES)	AC50 [µM]	Curve Class	IC50 [µM]	80% Inhib. @ [µM]
CCOC(=O)[C@@H]1[C@H]2COc3ccc(Br)cc3[C@@H]2N2C(=O)N(c3ccccc3)C(=O)[C@]12C [MLS001066242-01]	0.0224	4		
CCOC(=O)[C@@H]1[C@H]2COc3cc(OC)ccc3[C@@H]2N2C(=O)N(c3cccc(F)c3)C(=O)[C@@]12C [MLS001066231-01]	10	−2.1		
CCOC(=O)[C@@H]1[C@H]2COc3cc(OC)ccc3[C@H]2N2C(=O)N(c3ccc(C(F)(F)F)cc3)C(=O)[C@@]12C [MLS001066250-01]	4.47	4		
CCOC(=O)[C@@H]1[C@H]2COc3cc(OC)ccc3[C@@H]2N2C(=O)N(c3ccc(Cl)cc3)C(=O)[C@@]12C [MLS001066268-01]	8.91	−2.1		
CCOC(=O)[C@@H]1[C@H]2COc3ccc(Br)cc3[C@H]2N2C(=O)N(c3cccc(F)c3)C(=O)[C@]12C [MLS001066046-01]	0.0126	4		
CCOC(=O)[C@@H]1[C@H]2COc3ccccc3[C@H]2N2C(=O)N(c3cccc(Cl)c3)C(=O)[C@@]12C [MLS001066306-01]	7.08	4		
CCOC(=O)[C@@H]1[C@H]2COc3ccccc3[C@H]2N2C(=O)N(c3ccc(OC)cc3)C(=O)[C@]12C [MLS001066225-01]		4		
CCOC(=O)[C@@H]1[C@H]2COc3ccc(Br)cc3[C@H]2N2C(=O)N(c3ccc(F)cc3)C(=O)[C@@]12C [MLS001066263-01]	0.0045	4		
CCOC(=O)[C@@H]1[C@H]2COc3ccccc3[C@@H]2N2C(=O)N(c3ccccc3)C(=O)[C@@]12C [MLS001066482-01]	12.6	−2.1		
CCOC(=O)[C@@H]1[C@H]2COc3ccc(Br)cc3[C@H]2N2C(=O)N(c3ccc(C)cc3)C(=O)[C@]12C [MLS001066302-01]		4		
CCOC(=O)[C@@H]1[C@H]2COc3ccccc3[C@H]2N2C(=O)N(c3ccc(F)cc3)C(=O)[C@]12C [MLS001066503-01]	2.51	4		
CCOC(=O)[C@@H]1[C@H]2COc3ccccc3[C@@H]2N2C(=O)N(c3ccc(C)cc3)C(=O)[C@]12C [MLS001066443-01]	3.98	4		
CCOC(=O)[C@@H]1[C@H]2COc3ccc(Br)cc3[C@@H]2N2C(=O)N(c3ccc(C)cc3)C(=O)[C@]12C [MLS0010660292-01]	11.2	4		
CC(C)[C@@H](NC(=O)C1CCN(C(=O)[C@@H]2CCCN2C(=O)OC(C)(C)C)CC1)C(=O)NCc1ccc(F)cc1 [MLS001141034-02]			38.7	161.2
CCOC(=O)[C@@H]1[C@H]2COc3cc(OC)ccc3[C@@H]2N2C(=O)N(c3ccc(C(F)(F)F)cc3)C(=O)[C@]12C [MLS001066230-01]		4		
CN1CCN(C(=O)CCN2C(=O)/C(=C\c3ccccc3F)SC2=S)CC1 [MLS001201644-02]			16.7	40.36
CCOC(=O)[C@@H]1[C@H]2COc3ccc(Br)cc3[C@@H]2N2C(=O)N(c3ccc(Br)cc3)C(=O)[C@]12C [MLS001066244-01]	0.0056	4		
CCOC(=O)[C@@H]1[C@H]2COc3cc(OC)ccc3[C@@H]2N2C(=O)N(c3cccc(Cl)c3)C(=O)[C@]12C [MLS001066291-01]	0.112	4		
CCOC(=O)[C@@H]1[C@H]2COc3ccc(Br)cc3[C@@H]2N2C(=O)N(c3ccc(F)cc3)C(=O)[C@]12C [MLS001066243-01]	0.891	4		
CCOC(=O)[C@@H]1[C@H]2COc3cc(OC)ccc3[C@H]2N2C(=O)N(c3cccc(Cl)c3)C(=O)[C@@]12C [MLS001066311-01]	10	4		
CCOC(=O)[C@H]1[C@H]2COc3cc(OC)ccc3[C@@H]2N2C(=O)N(c3ccc(Cl)cc3)C(=O)[C@@]12C [MLS001066308-01]		4		
CCOC(=O)[C@@H]1[C@H]2COc3ccccc3[C@@H]2N2C(=O)N(c3ccccc3)C(=O)[C@]12C [MLS001066492-01]	0.141	4		
CCOC(=O)[C@@H]1[C@H]2COc3ccccc3[C@H]2N2C(=O)N(c3ccc(C)cc3)C(=O)[C@]12C [MLS001066453-01]	0.282	4		
CCOC(=O)[C@@H]1[C@H]2COc3ccc(Br)cc3[C@@H]2N2C(=O)N(c3cccc(F)c3)C(=O)[C@@]12C [MLS001066026-01]	17.8	−2.2		
